Assay results reported in US9075281B2, “Colored composition and image display structure” (FUJIFILM CORPORATION, priority 2011, dated 2015).

Tests used:
Assay type in all cases: physicochemical
[1] = Solubility of the dye in n-hexane; settings: in n-hexane at 25° C. and 0.1 MPa
Procedure: 3. Solubility in n-Hexane
The solubility of the dye in a solvent, n-hexane, was determined as follows.
The dye to be measured was dissolved in n-hexane heated at 50° C., to prepare a saturated solution. The saturated solution obtained was then left in an environment of 25° C. and 0.1 MPa for 1 hour. The precipitated dye was filtered, and the precipitation amount was measured, from which the solubility (% by mass) of the dye in n-hexane at 25° C. and 0.1 MPa was calculated.

[2] = Measurement of dynamic viscosity; settings: 3% by mass solution in n-decane, 20° C.
Procedure: Here, the dynamic viscosity is a value obtained by measurement at 20° C., using a viscometer (type 500, manufactured by Toki Sangyo Co., Ltd.).
5. Measurement of Dynamic Viscosity
A 3% by mass solution of Exemplary Compound D8-4 in n-decane was prepared, and the viscosity of the dye solution was measured at 20° C. using a viscometer (type 500, manufactured by Toki Sangyo Co., Ltd.).
The dynamic viscosities of the dyes (Exemplary Compounds) employed in Examples were obtained in the same manner, and the results are shown in Table 8.

[3] = Color of colored composition, visually evaluated; settings: n-hexane solution, visual evaluation
Description: 1. Color of Colored Composition
The color of the colored composition was visually evaluated.

[4] = Absorption maximum wavelength, absorbance and absorption coefficient of the colored composition; settings: n-hexane solution, 3% by mass or maximum concentration at which the dye completely dissolves; for Absorption Coefficient (ε): calculated by Lambert-Beer law
Procedure: 2. Absorption Maximum Wavelength, Absorbance and Absorption Coefficient of the Colored Composition
The absorption maximum wavelength (λmax) and the absorbance (abs) of the colored composition were measured using a visible-light spectrophotometer (trade name: UV-1800PC, manufactured by Shimadzu Corporation). The absorption coefficient (∈) was calculated based on the Lambert-Beer law.

[5] = Measurement of relative permittivity; settings: dye itself, extrapolated from 1, 1.5 and 2% by mass n-hexane solutions; 20° C., 40% RH, 1 kHz
Procedure: 4. Measurement of Relative Permittivity
Solutions of Exemplary Compound D8-4 in n-hexane having concentrations of 1% by mass, 1.5% by mass and 2% by mass, respectively, were prepared, and individually injected into glass cells each having transparent indium-tin-oxide electrodes and a cell gap of 10 μm. The electrical capacities of the resultant cells were measured at 20° C. and 40% RH using a type 2353 LCR meter (manufactured by NF Corporation) at a measurement frequency of 1 kHz. The electrical capacity of n-hexane was also measured as a control sample.
The relative permittivities of the dyes (Exemplary Compounds) employed in the Examples were obtained in the same manner, and the results are shown in Table 7.

Structure (SMILES) | Solubility (% by Mass) [1] | Dynamic Viscosity (mPa · s) [2] [mPa·s] | Color of Solution [3] | Absorption Maximum Wavelength (λ max) [4] [nm] | Relative Permittivity [5] | Absorption Coefficient (ε) [4]
CCCCC(CC)CNC(=O)c1cc(N(CC(CC)CCCC)CC(CC)CCCC)ccc1/N=C1\C(C#N)=C(C(=O)OC2C(C(C)(C)C)CC(C)CC2C(C)(C)C)c2nc(C(C)(C)C)nn21 (stereo not shown) [D9-6] | ≥ 10 or % by mass | 1.2 | blue | 650 | 6.2 | –
CCCCC(CC)CN(CC(CC)CCCC)c1ccc(/N=C2\C(C#N)=C(C(=O)OC3C(C(C)(C)C)CC(C)CC3C(C)(C)C)c3nc(C(C)(C)C)nn32)c(C(=O)N(CCCC)CCCC)c1 (stereo not shown) [D9-4] | – | – | – | – | 5.6 | –
CCCCC(CC)CNc1ccc(NCC(CC)CCCC)c2c1C(=O)c1ccccc1C2=O (stereo not shown) [D4-2] | 3.6 % by mass | 1.3 | blue | 640 | 6.5 | –
CCCCCCCCN1c2cc(C)c(/N=C3/C(C)=Nn4nc(C(C)(C)C)nc43)cc2C(C)CC1(C)C (stereo not shown) [D8-101, reference compound] | 0.8 % by mass | – | red | 541 | – | –
CCCCCCOc1cc(N(CCCC)CCCC)ccc1C=C1C(=O)N(CCCC)C(=O)C(C#N)=C1C [D3-101, reference compound] | ≦0.01 % by mass | – | – | – | – | –
CCN(CC)c1ccc(/N=C2\C(C#N)=C(C(=O)OC)c3nc(-c4ccc(C(C)(C)C)cc4)nn32)c(C)c1 [D9-101, reference compound] | ≤ 0.05 or % by mass | – | – | – | – | –
CCCCC(CC)CN(CC(CC)CCCC)c1ccc(/N=C2\C(C#N)=C(C(=O)OC3C(C(C)(C)C)CC(C)CC3C(C)(C)C)c3nc(C(C)(C)C)nn32)cc1 (stereo not shown) [D9-5] | ≥ 10 or % by mass | 1.2 | blue | 600 | 6.5 | –
CCCCC(CC)CN(CC(CC)CCCC)c1ccc(/N=C2\C(C#N)=C(C(=O)OC3C(C(C)(C)C)CC(C)CC3C(C)(C)C)c3nc(C(CC)CCCC)nn32)c(C(C)CC)c1 (stereo not shown) [D9-3] | – | – | – | – | 7.6 | –
CCCCC(CC)CC1=NN(CC(CC)CCCC)C(=O)C1=Nc1ccc(N(CC)CC)cc1OCC(C)(CC(C)CC(C)C)CC(C)CC(C)(C)C (stereo not shown) [D6-2] | ≥ 10 or % by mass | – | – | 500 | – | –
CCCCCCCCN1c2cc(C)c(/N=C3/C(C)=Nn4nc(C(C)CNC(=O)C(CCCCCC)Oc5ccc(C(C)(C)CC)cc5C(C)(C)CC)nc43)cc2C(C)CC1(C)C (stereo not shown) [D8-2] | ≥ 10 or % by mass | – | red | 542 | – | –
CCCCC(CC)CN1C(=O)C(=Cc2ccc(N(CCCC)CCCC)cc2OCC(CC(C)CC(C)CC(C)C)CC(C)CC(C)(C)C)C(C)=C(C#N)C1=O (stereo not shown) [D3-2] | ≥ 10 or % by mass | – | – | 525 | – | –
CCCCCCCCN1c2cc(C)c(/N=C3\C(C#N)=C(C(=O)OC4C(C(C)(C)C)CC(C)CC4C(C)(C)C)c4nc(C(C)CCCC)nn43)cc2C(C)CC1(C)C (stereo not shown) [D9-2] | 2.2 % by mass | – | blue | 616 | – | –
CCCCCCOc1cc(N(CC)CC)ccc1N=C1C(=O)N(CCCC)N=C1C [D6-101, reference compound] | 0.1 % by mass | – | orange | 500 | – | –
CCCCCCNc1ccc(NCCCCCC)c2c1C(=O)c1ccccc1C2=O [D4-101, reference compound] | 0.1 % by mass | – | blue | 642 | – | –

Second part, the compound after the results:

Solubility (% by Mass) [1] | Dynamic Viscosity (mPa · s) [2] [mPa·s] | Color of Solution [3] | Absorption Maximum Wavelength (λ max) [4] [nm] | Relative Permittivity [5] | Absorption Coefficient (ε) [4] | Structure (SMILES)
≥ 10 or % by mass | 1.3 | red | 562 | 7.8 | – | CCCCCC(CC)c1nc2n(n1)N=C(C(C)CC)/C2=N/c1ccc(N(CC(CC)CCCC)CC(CC)CCCC)cc1C (stereo not shown) [D8-4]
9.8 % by mass | – | – | 505 | – | 4.60 × 10^4 | CCCCC(CC)CC1=NN(CC(CC)CCCC)C(=O)C1=Cc1ccc(N(CC)CC)cc1OCC(CC(C)CC(C)CC(C)C)CC(C)CC(C)(C)C (stereo not shown) [D2-2]
6.2 % by mass | 1.2 | – | 528 | 9.5 | – | CCCCC(CC)CN(CC(CC)CCCC)c1ccc(C=C2C(=O)N(C(C)CC)C(=O)C(C#N)=C2C(C)CC)c(C)c1 (stereo not shown) [D3-1]
– | 1.3 | – | – | 4.2 | – | CCCCC(CC)CNC(=O)C1=CC(=Nc2ccc(N(CC(CC)CCCC)CC(CC)CCCC)cc2C)c2ccccc2C1=O (stereo not shown) [D10-1]
0.1 % by mass | – | orange | 510 | – | 4.25 × 10^4 | CCCCC1=NN(CCCC)C(=O)C1=Cc1ccc(N(CCCC)CCCC)cc1C [D2-101, reference compound]
3.0 % by mass | 1.2 | orange | 510 | 8.0 | 4.30 × 10^4 | CCCCCCN(CCCCCC)c1ccc(C=C2C(=O)N(CC(CC)CCCC)N=C2C)c(C)c1 (stereo not shown) [D2-5]
– | 1.3 | – | – | 7.7 | – | CCCCC(CC)CNC(=O)c1cc(N(CC(CC)CCCC)CC(CC)CCCC)ccc1/N=C1/C(CC)=Nn2nc(C(C)C)nc21 (stereo not shown) [D8-9]
– | 1.2 | – | – | 8.8 | – | CCCCC(CC)CN(CC(CC)CCCC)c1ccc(C=C2C(=O)ON=C2C(C)CC)c(C)c1 (stereo not shown) [D1-1]
≥ 10 or % by mass | 1.2 | – | 505 | 7.5 | – | CCCCC(CC)COc1cc(N(CC(CC)CCCC)CC(CC)CCCC)ccc1N=C1C(=O)N(CC(CC)CCCC)N=C1C (stereo not shown) [D6-1]
8.5 % by mass | 1.3 | orange | 508 | 8.5 | 4.40 × 10^4 | CCCCC(CC)CN(CC(CC)CCCC)c1ccc(C=C2C(=O)N(C(C)CC)N=C2C(C)CC)c(C)c1 (stereo not shown) [D2-1]
